# Experiments:
# [1] = test system: C. xerosis; experiment: Antimicrobial effect: germ count over time in 0.3% by weight aqueous solution of test substance; assay type: cell-based, Corynebacterium xerosis; conditions: 0.3% by weight in water, 37° C.; for germ count CFU/ml, 0 hours: directly after addition (0 h)
# Description: (§1) 20 ml of a 0.3% by weight solution of the test substance listed below in the table in water was inoculated with 200 μl of a fresh 48 hour culture of C. xerosis or S. epidermidis and incubated for three days at 37° C. Directly after the addition, as well as after 1, 3, 24 and 48 hours, samples, each of 1 ml, were taken and the germ count was determined.
# [2] = test system: S. epidermidis; experiment: as above; assay type: cell-based, Staphylococcus epidermidis; conditions: 0.3% by weight in water, 37° C.; for germ count CFU/ml, 0 hours: directly after addition (0 h)
# Description: as §1
# [3] = test system: S. epidermidis; experiment: pH dependency of the antimicrobial effect: germ count in buffered solutions; assay type: cell-based, Staphylococcus epidermidis
# Description: as §1
# (§2) The antimicrobial effect of octyllactamide in buffered solutions was tested correspondingly to example 8 at various pH values.
# [4] = test system: C. xerosis; experiment: as above; assay type: cell-based, Corynebacterium xerosis
# Description: as §1, §2
compound,measurement,setting,value
"CCCCCCNC(=O)C(C)O (stereo not shown) [Hexyllactamide, N-Hexyllactamide]","germ count CFU/ml, 1 hour",[1],5.5E+5 CFU/ml
same,"germ count CFU/ml, 3 hours",[1],2.6E+3 CFU/ml
same,"germ count CFU/ml, 24 hours",[1],<2.0E+2 CFU/ml
same,"germ count CFU/ml, 48 hours",[1],<2.0E+2 CFU/ml
same,"germ count CFU/ml, 0 hours",[1],2.5E+6 CFU/ml
same,"germ count CFU/ml, 1 hour",[2],1.7E+6 CFU/ml
same,"germ count CFU/ml, 3 hours",[2],7.1E+5 CFU/ml
same,"germ count CFU/ml, 24 hours",[2],<2.0E+2 CFU/ml
same,"germ count CFU/ml, 48 hours",[2],<2.0E+2 CFU/ml
same,"germ count CFU/ml, 0 hours",[2],8.6E+6 CFU/ml
"CCCCCCCCNC(=O)C(C)O (stereo not shown) [Octyllactamide, N-octyllactamide]","germ count CFU/ml, 1 hour",[1],1.5E+4 CFU/ml
same,"germ count CFU/ml, 3 hours",[1],<2.0E+2 CFU/ml
same,"germ count CFU/ml, 24 hours",[1],<2.0E+2 CFU/ml
same,"germ count CFU/ml, 48 hours",[1],<2.0E+2 CFU/ml
same,"germ count CFU/ml, 0 hours",[1],9.1E+5 CFU/ml
same,"germ count CFU/ml, 0 hours","[3]; buffered solution pH 4.5, 0 h",3.7E+6 CFU/ml
same,"germ count CFU/ml, 1 hour","[3]; buffered solution pH 4.5, 1 h",2.1E+6 CFU/ml
same,"germ count CFU/ml, 3 hours","[3]; buffered solution pH 4.5, 3 h",7.9E+4 CFU/ml
same,"germ count CFU/ml, 24 hours","[3]; buffered solution pH 4.5, 24 h",<2.0E+2 CFU/ml
same,"germ count CFU/ml, 48 hours","[3]; buffered solution pH 4.5, 48 h",<2.0E+2 CFU/ml
same,"germ count CFU/ml, 0 hours","[3]; buffered solution pH 5.5, 0 h",3.7E+6 CFU/ml
same,"germ count CFU/ml, 1 hour","[3]; buffered solution pH 5.5, 1 h",1.7E+6 CFU/ml
same,"germ count CFU/ml, 3 hours","[3]; buffered solution pH 5.5, 3 h",4.7E+3 CFU/ml
same,"germ count CFU/ml, 24 hours","[3]; buffered solution pH 5.5, 24 h",<2.0E+2 CFU/ml
same,"germ count CFU/ml, 48 hours","[3]; buffered solution pH 5.5, 48 h",<2.0E+2 CFU/ml
same,"germ count CFU/ml, 0 hours","[3]; buffered solution pH 6.9, 0 h",3.1E+6 CFU/ml
same,"germ count CFU/ml, 1 hour","[3]; buffered solution pH 6.9, 1 h",1.5E+6 CFU/ml
same,"germ count CFU/ml, 3 hours","[3]; buffered solution pH 6.9, 3 h",5.7E+4 CFU/ml
same,"germ count CFU/ml, 24 hours","[3]; buffered solution pH 6.9, 24 h",<2.0E+2 CFU/ml
same,"germ count CFU/ml, 48 hours","[3]; buffered solution pH 6.9, 48 h",<2.0E+2 CFU/ml
same,"germ count CFU/ml, 1 hour",[2],3.7E+6 CFU/ml
same,"germ count CFU/ml, 3 hours",[2],3.0E+6 CFU/ml
same,"germ count CFU/ml, 24 hours",[2],2.3E+6 CFU/ml
same,"germ count CFU/ml, 48 hours",[2],8.5E+5 CFU/ml
same,"germ count CFU/ml, 0 hours",[2],1.9E+7 CFU/ml
same,"germ count CFU/ml, 0 hours","[4]; buffered solution pH 4.5, 0 h",1.0E+6 CFU/ml
same,"germ count CFU/ml, 1 hour","[4]; buffered solution pH 4.5, 1 h",5.5E+4 CFU/ml
same,"germ count CFU/ml, 3 hours","[4]; buffered solution pH 4.5, 3 h",<2.0E+2 CFU/ml
same,"germ count CFU/ml, 24 hours","[4]; buffered solution pH 4.5, 24 h",<2.0E+2 CFU/ml
same,"germ count CFU/ml, 48 hours","[4]; buffered solution pH 4.5, 48 h",<2.0E+2 CFU/ml
same,"germ count CFU/ml, 0 hours","[4]; buffered solution pH 5.5, 0 h",1.0E+6 CFU/ml
same,"germ count CFU/ml, 1 hour","[4]; buffered solution pH 5.5, 1 h",1.8E+5 CFU/ml
same,"germ count CFU/ml, 3 hours","[4]; buffered solution pH 5.5, 3 h",3.5E+4 CFU/ml
same,"germ count CFU/ml, 24 hours","[4]; buffered solution pH 5.5, 24 h",<2.0E+2 CFU/ml
same,"germ count CFU/ml, 48 hours","[4]; buffered solution pH 5.5, 48 h",<2.0E+2 CFU/ml
same,"germ count CFU/ml, 0 hours","[4]; buffered solution pH 6.9, 0 h",7.3E+5 CFU/ml
same,"germ count CFU/ml, 1 hour","[4]; buffered solution pH 6.9, 1 h",3.3E+3 CFU/ml
same,"germ count CFU/ml, 3 hours","[4]; buffered solution pH 6.9, 3 h",<2.0E+2 CFU/ml
same,"germ count CFU/ml, 24 hours","[4]; buffered solution pH 6.9, 24 h",<2.0E+2 CFU/ml
same,"germ count CFU/ml, 48 hours","[4]; buffered solution pH 6.9, 48 h",<2.0E+2 CFU/ml
PEG-3-octyllactamide [Octyl-PEG-3-lactamide],"germ count CFU/ml, 1 hour",[1],6.3E+4 CFU/ml
same,"germ count CFU/ml, 3 hours",[1],3.7E+3 CFU/ml
same,"germ count CFU/ml, 24 hours",[1],<2.0E+2 CFU/ml
same,"germ count CFU/ml, 48 hours",[1],<2.0E+2 CFU/ml
same,"germ count CFU/ml, 0 hours",[1],9.1E+5 CFU/ml
same,"germ count CFU/ml, 1 hour",[2],4.1E+6 CFU/ml
same,"germ count CFU/ml, 3 hours",[2],3.1E+6 CFU/ml
same,"germ count CFU/ml, 24 hours",[2],<2.0E+2 CFU/ml
same,"germ count CFU/ml, 48 hours",[2],<2.0E+2 CFU/ml
same,"germ count CFU/ml, 0 hours",[2],1.9E+7 CFU/ml
PEG-10-octyllactamide [Octyl-PEG-10-lactamide],"germ count CFU/ml, 1 hour",[1],4.5E+5 CFU/ml
same,"germ count CFU/ml, 3 hours",[1],1.8E+5 CFU/ml
same,"germ count CFU/ml, 24 hours",[1],1.6E+3 CFU/ml
same,"germ count CFU/ml, 48 hours",[1],<2.0E+2 CFU/ml
same,"germ count CFU/ml, 0 hours",[1],9.1E+5 CFU/ml
same,"germ count CFU/ml, 1 hour",[2],2.3E+6 CFU/ml
same,"germ count CFU/ml, 3 hours",[2],9.3E+6 CFU/ml
same,"germ count CFU/ml, 24 hours",[2],8.1E+4 CFU/ml
same,"germ count CFU/ml, 48 hours",[2],<2.0E+2 CFU/ml
same,"germ count CFU/ml, 0 hours",[2],1.9E+7 CFU/ml

# Reference: US7847123B2, “Antimicrobial compositions” (Evonik Goldschmidt GmbH, priority 2006, dated 2010)
